From EP0993437B1, “2-(4-BROMO OR 4-IODO PHENYLAMINO) BENZOIC ACID DERIVATIVES AND THEIR USE AS MEK INHIBITORS” (Warner-Lambert Company LLC, priority 1997, dated 1999)
Where a name gives a salt, the structure may show the parent alone.

Target: MEK
Assay: Cascade assay for inhibitors of the MAP kinase pathway (In Vitro)
Format: biochemical
Experimental: Incorporation of ^32P into myelin basic protein (MBP) was assayed in the presence of a glutathione S-transferase fusion protein containing p44MAP kinase (GST-MAPK) and a glutathione S-transferase fusion protein containing p45MEK (GST-MEK). The assay solution contained 20 mM HEPES, pH 7.4, 10 mM MgCl2, 1-mM MnCl2, 1 mM EGTA, 50 µM [γ-^32P]ATP, 10 µg GST-MEK, 0.5 µg GST-MAPK and 40 µg MBP in a final volume of 100 µL. […] Compounds were assessed at 10 µM for ability to inhibit incorporation of ^32P.
To ascertain whether compounds were inhibiting GST-MEK or GST MAPK, two additional protocols were employed. In the first protocol, compounds were added to tubes containing GST-MEK, followed by addition of GST-MAPK, MBP and [γ-^32P]ATP.

| Compound | IC50 [nM] |
| --- | --- |
| Cc1cc(I)ccc1Nc1ccc(Br)cc1CO [Example 52, [5-Bromo-2-(4-iodo-2-methyl-phenylamino)-phenyl]-methanol] | 2350 |
| Cc1cc(I)ccc1Nc1ccc(Br)cc1C(=O)N(C)C [Example 48, 5-Bromo-2-(4-iodo-2-methyl-phenylamino)-N,N-dimethyl-benzamide] | 1940 |
| O=C(O)c1cc([N+](=O)[O-])ccc1Nc1ccc(I)cc1F [Example 12, 2-(2-Fluoro-4-iodo-phenylamino)-5-nitro-benzoic acid] | 135 |
| O=C(O)c1cc([N+](=O)[O-])c(Nc2ccc(I)cc2Cl)c(F)c1Nc1ccc(I)cc1Cl [Example 212, 2,4-Bis-(2-chloro-4-iodo-phenylamino)-3-fluoro-5-nitro-benzoic acid] | 34 |
| O=C(O)c1ccc(F)cc1Nc1ccc(I)cc1Br [Example 217, 2-(2-Bromo-4-iodo-phenylamino)-4-fluoro-benzoic acid] | > 1000 |
| CCNC(=O)c1ccc(F)cc1Nc1ccc(I)cc1C [Example 35, N-Ethyl-4-fluoro-2-(4-iodo-2-methyl-phenylamino)-benzamide] | 121 |
| CCN(CC)C(=O)c1cc([N+](=O)[O-])ccc1Nc1ccc(I)cc1C [Example 45, N,N-Diethyl-2-(4-iodo-2-methyl-phenylamino)-5-nitro-benzamide] | 1760 |
| Cc1cc(I)ccc1Nc1ccc(Cl)cc1C(=O)N(C)C [Example 39, 5-Chloro-2-(4-iodo-2-methyl-phenylamino)-N,N-dimethyl-benzamide] | 497 |
| CCN(CC)CCNC(=O)c1cc(Cl)ccc1Nc1ccc(I)cc1C [Example 93, 5-Chloro-N-(2-diethylamino-ethyl)-2-(4-iodo-2-methyl-phenylamino)-benzamide] | 521 |
| Cc1cc(I)ccc1Nc1ccc(I)cc1C(=O)NCCO [Example 191, N-(2-Hydroxy-ethyl)-5-iodo-2-(4-iodo-2-methyl-phenylamino)-benzamide] | 1360 |
| N-(2,3-Dihydroxy-propyl)-4-fluoro-2-(4-iodo-2-methyl-phenylamino)-benzamide [Example 57] | 399 |
| Nc1c([N+](=O)[O-])cc(C(=O)O)c(Nc2ccc(I)cc2Cl)c1F [Example 211, 4-Amino-2-(2-chloro-4-iodo-phenylamino)-3-fluoro-5-nitro-benzoic acid] | > 100 |
| Cc1cc(I)ccc1Nc1cc(F)ccc1C(=O)NN [Example 224, 4-Fluoro-2-(4-iodo-2-methyl-phenylamino)-benzoic acid hydrazide] | 28 |
| Cc1cc(I)ccc1Nc1ccc(Br)cc1C(N)=O [Example 38, 5-Bromo-2-(4-iodo-2-methyl-phenylamino)-benzamide] | 412 |
| Cc1cc(I)ccc1Nc1cc(F)ccc1C(=O)Nc1nnn[nH]1 [Example 37, 4-Fluoro-2-(4-iodo-2-methyl-phenylamino)-N-(1H-tetrazol-5-yl)-benzamide] | 237 |
| COc1cc(I)ccc1Nc1c(C(=O)O)ccc(F)c1F [Example 17, 3,4-Difluoro-2-(4-iodo-2-methoxy-phenylamino)-benzoic acid] | 434 |
| O=C(O)c1ccc(F)cc1Nc1ccc(I)cc1Cl [Example 219, 2-(2-Chloro-4-iodo-phenylamino)-4-fluoro-benzoic acid] | 108 |
| C=CCNC(=O)c1cc(Cl)ccc1Nc1ccc(I)cc1C [Example 193, N-Allyl-5-chloro-2-(4-iodo-2-methyl-phenylamino)-benzamide] | 2900 |
| COc1ccc(NC(=O)c2ccc(OC)c([N+](=O)[O-])c2)cc1 [Example 32, 4-Methoxy-N-(4-methoxy-phenyl)-3-nitro-benzamide] | 28 |
| Cc1cc(I)ccc1Nc1ccc([N+](=O)[O-])cc1C(=O)N(C)c1ccccc1 [Example 189, 2-(4-Iodo-2-methyl-phenylamino)-N-methyl-5-nitro-N-phenyl-benzamide] | 859 |
| O=C(O)c1cc([N+](=O)[O-])ccc1Nc1ccc(I)cc1Cl [Example 9, 2-(2-Chloro-4-iodo-phenylamino)-5-nitro-benzoic acid] | 97 |
| CCN(CC)C(=O)c1ccc(F)cc1Nc1ccc(I)cc1C [Example 43, N,N-Diethyl-4-fluoro-2-(4-iodo-2-methyl-phenylamino)-benzamide] | > 1000 |
| Cc1cc(Br)ccc1Nc1c(C(=O)O)ccc(F)c1F [Example 15, 2-(4-Bromo-2-methyl-phenylamino)-3,4-difluoro-benzoic acid] | 194 |
| N-(2,3-Dihydroxy-propyl)-3,4-difluoro-2-(4-iodo-2-methyl-phenylamino)-benzamide [Example 54] | 158 |
| 5-Bromo-3,4-difluoro-2-(4-iodo-2-methyl-phenylamino)-N-(2-piperidin-1-yl-ethyl)-benzamide [Example 55] | 114 |

| Compound | IC50 [nM] |
| --- | --- |
| Cc1c(Nc2cc(F)ccc2C(=O)O)ccc(I)c1Cl [Example 23, 4-Fluoro-2-(3-chloro-4-iodo-2-methyl-phenylamino)-benzoic acid] | 1590 |
| Cc1cc(I)ccc1Nc1ccc([N+](=O)[O-])cc1C(=O)NC1CCCCC1 [Example 184, N-Cyclohexyl-2-(4-iodo-2-methyl-phenylamino)-5-nitro-benzamide] | 278 |
| Cc1cc(I)ccc1Nc1c(F)cccc1C(=O)O [Example 16, 3-Fluoro-2-(4-iodo-2-methyl-phenylamino)-benzoic acid] | 323 |
| Cc1cc(I)ccc1Nc1c(C(=O)NN2CCN(C)CC2)cc(Br)c(F)c1F [Example 222, 5-Bromo-3,4-difluoro-2-(4-iodo-2-methyl-phenylamino)-N-(4-methyl-piperazin-1-yl)-benazmide] | 85 |
| Cc1cc(I)ccc1Nc1ccc([N+](=O)[O-])cc1-c1nnn[nH]1 [Example 209, [4-Nitro-2-(1H-tetrazol-5-yl)phenyl]-(4-iodo-2-methyl-phenyl)-amine] | 1370 |
| Cc1cc(I)ccc1Nc1ccc(Cl)cc1C(=O)NCCO [Example 31, 5-Chloro-N-(2-hydroxyethyl)-2-(4-iodo-2-methyl-phenylamino)-benzamide] | 226 |
| CCCCNC(=O)c1ccc(F)cc1Nc1ccc(I)cc1C [Example 46, N-Butyl-4-fluoro-2-(4-iodo-2-methyl-phenylamino)-benzamide] | 1810 |
| Cc1cc(I)ccc1Nc1ccc(Cl)cc1C(=O)NCC(=O)O [Example 40] | 651 |
| Cc1cc(I)ccc1Nc1ccc(Cl)cc1C(=O)NCCO [Example 187, 5-Chloro-N-(2-hydroxy-ethyl)-2-(4-iodo-2-methyl-phenylamino)-benzamide] | 561 |
| Cc1cc(I)ccc1Nc1ccc(Cl)cc1C(=O)NC1CC1 [Example 192, 5-Chloro-N-cyclopropyl-2-(4-iodo-2-methyl-phenylamino)-benzamide] | 1800 |
| Cc1cc(I)ccc1Nc1ccc(Cl)cc1C(=O)O [Example 6, 5-Chloro-2-(4-iodo-2-methyl-phenylamino)-benzoic acid] | 71 |
| Cc1cc(I)ccc1Nc1ccc([N+](=O)[O-])cc1C(=O)N1CCC(O)C1 (stereo not shown) [Example 95, (3-Hydroxy-pyrrolidin-1-yl)-[2-(4-iodo-2-methyl-phenylamino)-5-nitro-phenyl]-methanone] | 1000 |
| Cc1cc(I)ccc1Nc1ccc(Cl)cc1C(=O)N(C)c1ccccc1 [Example 190, 5-Chloro-2-(4-iodo-2-methyl-phenylamino)-N-methyl-N-phenyl-benzamide] | 921 |
| Cc1cc(I)ccc1Nc1ccccc1-c1nnn[nH]1 [Example 208, (4-Iodo-2-methyl-phenyl)-[2-(1H-tetrazol-5-yl)-phenyl]amine] | 1220 |
| CCN(CC)C(=O)c1cc(Cl)ccc1Nc1ccc(I)cc1C [Example 47, 5-Chloro-N,N-diethyl-2-(4-iodo-2-methyl-phenylamino)-benzamide] | 1910 |
| O=C(O)c1ccc(F)c(F)c1Nc1c(F)cc(I)cc1F [Example 214, 2-(2,6-Difluoro-4-iodo-phenylamino)-3,4-difluoro-benzoic acid] | 303 |
| COC(=O)c1c(F)c(F)c(N2CCN(C)CC2)c(F)c1Nc1ccc(I)cc1C [Example 221, 2,3,5-Trifluoro-6-(4-iodo-2-methyl-phenylamino)-4-(4-methyl-piperazin-1-yl)-benzoic acid methyl ester dihydrofluoride salt] | 2 |
| Cc1cc(I)ccc1Nc1ccc(Br)cc1C(=O)NCCCN1CCN(CCO)CC1 [Example 92, 5-Bromo-N-{3-[4-(2-hydroxy-ethyl)-piperazin-1-yl]-propyl}-2-(4-iodo-2-methyl-phenylamino)-benzamide] | 253 |
| Cc1cc(I)ccc1Nc1ccc(Br)cc1C(=O)N1CCC(O)C1 (stereo not shown) [Example 100, [5-Bromo-2-(4-iodo-2-methyl-phenylamino)-phenyl]-(3-hydroxy-pyrrolidin-1-yl)-] | 1990 |
| Cc1cc(I)ccc1Nc1cc(Cl)ccc1C(=O)O [Example 18, 4-Chloro-2-(4-iodo-2-methyl-phenylamino)-benzoic acid] | 446 |
| O=C(O)c1cccc(Cl)c1Nc1ccc(I)cc1Cl [Example 25, 3-Chloro-2-(2-chloro-4-iodo-phenylamino)-benzoic acid] | 2360 |
| Cc1cc(I)ccc1Nc1cc(F)ccc1C(N)=O [Example 33, 4-Fluoro-2-(4-iodo-2-methyl-phenylamino)-benzamide] | 52 |
| Cc1cc(I)ccc1Nc1cc(F)c([N+](=O)[O-])cc1C(=O)O [Example 213, 4-Fluoro-2-(4-iodo-2-methyl-phenylamino)-5-nitro-benzoic acid] | 62 |
| Cc1cc(Br)ccc1Nc1cc(F)ccc1C(=O)O [Example 13, 2-(4-Bromo-2-methyl-phenylamino)-4-fluoro-benzoic acid] | 178 |
